Test results published in patent publication US9273038B2, “Solid forms of an ion channel modulator” (Gilead Sciences, Inc., priority 2014, dated 2016).
≈ marks a conversion by molar mass, not a printed value. Where two headings read alike, the source gives them in different places.

What was measured:
[1] = Extended stable form screen starting from Form II: solubility of filtrate by TGA; format: physicochemical; details: suspension of the solid in solvent, filtrate analysed, 21 °C, organic solvent or mixture, thermodynamic from solid, about 21° C.
Experimental: These experiments were performed at about 21° C. starting from Form II. After about 3 to 6 days in suspension two experiments produced full conversion from Form II to Form I; one became biphasic; and the rest remained Form II (FIG. 43). Three of the filtrates obtained from isolating the solid phase from samples became biphasic before the solubility could be measured by TGA.
After about 8 to 11 days in suspension the distribution of forms remained unchanged (FIG. 44). All of the filtrates except one became biphasic before solubility could be measured by TGA.

[2] = Determination of transition temperature between Forms I and II (slurries at 35 and 38° C., pXRD); format: physicochemical; details: slurries with and without Form II seeds, iPrOAc/n-heptane
Experimental: […] describes the set of experiments which concluded that Form I and II are enantiotropic forms and determined the transition temperature. Slurries of Form I with and without Form II seeds were stirred at 35° C. and 38° C. and samples were removed periodically for pXRD analysis. For slurries of Form I aged at 35° C., Form I dominated regardless of whether Form II seeds were present (albeit when Form II seeds were present, the full conversion to Form I took about 5 days) (Table 4). In contrast, slurries of Form I at 38° C. in the presence of Form II seeds rapidly turned over to Form II within 1 day and remained Form II even after the slurry was cooled to 20° C. for isolation. When no Form II seeds were present, Form I slurries remained unchanged even when aged at 38° C.

[3] = Dynamic vapor sorption (DVS) analysis; format: physicochemical; details: for Relative humidity of deliquescence (DVS): mono sulfate
Experimental: The solids with unique XRPD patterns were characterized by DSC, TGA, ^1H NMR, KF and DVS. All XRPD patterns were obtained in the experimental setting as follows: 45 kV, 40 mA, Kα1=1.5406 Å, scan range 2 to 40°, step size 0.0167°, counting time: 15.24 s. DSC and TGA analyses were performed using 10° C./min heating rate over the 20 to 350° C. temperature range.

[4] = Dissolution test of Compound I Form VII in DI water; format: physicochemical; details: about 8 mg in 0.5 mL DI water; stirred overnight at room temperature; solid found: free base Form I
Experimental: A dissolution test of Compound I Form VII (about 8 mg) and 0.5 mL of DI water was performed. The solids were almost completely dissolved at first, and then more solids precipitated out. The slurry was allowed to be stirred overnight at room temperature before XRPD and ^1H NMR analyses, which confirm Compound I free base (Form I).

[5] = Stable form screen: solubility in single and binary solvents (HPLC, external standard); format: physicochemical
Experimental: In order to determine whether other polymorphs of Compound I exist, a stable form screen was conducted. […] As a result, slurries were typically produced in non-polar solvents. Table 1). Slurries were also generated in solvent combinations with n-heptane (Table 2) and cyclohexane (Table 3). In cases where a slurry was formed, Form I was isolated after agitation for 1 day and 3 weeks.

[6] = Hydrate screen in ethanol/water and isopropanol/water: solubility and relative form stability; format: physicochemical; details: for Solubility: 5 days, started from Form I
Experimental: A hydrate screen starting from Form I was also conducted to evaluate whether hydrates of Compound I exist. The hydrate screen was conducted in ethanol/water (Table 6) and isopropanol/water (Table 7) mixtures, and in both cases, a new polymorph of Compound I was discovered (denoted as Form III).
From the initial hydrate screens presented in Table 6 and Table 7 no apparent trends were observed. In this case, all slurries of Form I in EtOH/water or IPA/water mixtures remained unchanged after 2 weeks (Table 8 and Table 9). Since Form III has been observed previously under the same conditions, it was suspected that the lack of form conversion is mainly due to slow kinetics. […] Attempts to determine the relative stability between Forms I and III at lower water activities were unsuccessful since Form I either was too soluble or oiled out at water activities of 0.8 or below.

pKa = format: physicochemical
[7] = tested on: late sodium current (INaL); details: as described in WO 2013/006485; cited from earlier work
[8] = Stable hydrate screen in methanol/water: solubility by TGA; format: physicochemical
Experimental: Since the hydrate screens from aqueous mixtures of ethanol and isopropyl alcohol were performed in a fairly narrow range of water activity (Aw≧0.8), it was desirable to determine the outcome over a wider range of water activities. An attempt was made to explore this using a system of methanol and water (Table 10). Form I was used as the starting material. […] At and above this Aw only Form I was found.

[9] = Relative stability of Compound I Forms XIV and XV (seeding, heating at about 130° C., XRPD); format: physicochemical; details: seeding experiments; Form XV heated at about 130° C. for about 10 minutes gave Form XIV
Experimental: In another experiment, Compound I FORM XV was heated at about 130° C. for about 10 minutes and cooled to about 21° C. prior to XRPD analysis.

O=C1c2cc(-c3ccc(OC(F)(F)F)cc3)ccc2OCCN1Cc1ncccn1 [Compound I Form II, 4-(pyrimidin-2-ylmethyl)-7-(4-(trifluoromethoxy)phenyl)-3,4-dihydrobenzo[f][1,4]oxazepin-5(2H)-one]
Solubility ([1]; Ethanol/n-heptane (1/4) v/v, 4-6 days, read-out: 4-6 Days Solubility): 32 mg/mL (≈ 77 mM)
Solubility ([1]; MIBK/n-heptane (1/4) v/v, 4-6 days, read-out: 4-6 Days Solubility): 26 mg/mL (≈ 62.6 mM)
Solubility ([1]; MIBK/n-heptane (1/4) v/v, 8-11 days, read-out: 8-11 Day Solubility): 35 mg/mL (≈ 84.3 mM)
Solubility ([1]; THF/n-heptane (1/4) v/v, 4-6 days, read-out: 4-6 Days Solubility): 29 mg/mL (≈ 69.8 mM)
Relative stability of Forms I and II (in words) ([2]; listed as Form II): the more stable form at or above 38 °C

Cc1ccc(S(=O)(=O)O)cc1.O=C1c2cc(-c3ccc(OC(F)(F)F)cc3)ccc2OCCN1Cc1ncccn1 [Compound I Form VII, 4-(pyrimidin-2-ylmethyl)-7-(4-(trifluoromethoxy)phenyl)-3,4-dihydrobenzo[f][1,4]oxazepin-5(2H)-one p-toluenesulfonic acid]
Hygroscopicity by DVS (in words) [3]: moderately hygroscopic
Moisture uptake at 90% RH (DVS) ([3]; 90% RH): about 2.75 wt %
Water adsorbed at 90% RH (DVS) ([3]; 90% RH): about 0.9 molar equivalents
Moisture uptake at 90% RH (DVS) ([3]; 90% RH, listed as Form VII): 2.75 wt % at
Hygroscopicity by DVS (in words) ([3]; listed as Form VII): Moderately
Stability in water (in words) [4]: unstable in water and dissociates in it

O=C1c2cc(-c3ccc(OC(F)(F)F)cc3)ccc2OCCN1Cc1ncccn1 [Compound I, 4-(pyrimidin-2-ylmethyl)-7-(4-(trifluoromethoxy)phenyl)-3,4-dihydrobenzo[f][1,4]oxazepin-5(2H)-one]
Solubility (mg/g) (3 weeks) ([5]; 2-MeTHF/n-heptane (1:5) v/v, slurry, solid Form I): 6.7 mg/g
Solubility (mg/g) (3 weeks) ([5]; Cyclohexane, slurry, solid Form I): 2.4 mg/g
Solubility (mg/g) (1 day) ([5]; EtOAc/cyclohexane (1:3) v/v, 1 day, slurry, solid Form I): 86 mg/g
Solubility (mg/g) (3 weeks) ([5]; IPA/n-heptane (1:4) v/v, slurry, solid Form I): 20.0 mg/g
Solubility (mg/g) (3 weeks) ([5]; IPA, homogenous): >300 mg/g
Solubility (mg/g) (3 weeks) ([5]; IPE, slurry, solid Form I): 21.5 mg/g
Solubility (mg/g) (3 weeks) ([5]; MTBE/n-heptane (1:2) v/v, slurry, solid Form I): 5.4 mg/g
Solubility (mg/g) (3 weeks) ([5]; MTBE, homogenous): >240 mg/g
Solubility (mg/g) (3 weeks) ([5]; MeCN, homogenous): >350 mg/g
Solubility (mg/g) (3 weeks) ([5]; Toluene/n-heptane (1:3) v/v, slurry, solid Form I): 7.1 mg/g
Solubility (mg/g) (3 weeks) ([5]; Toluene, homogenous): >500 mg/g
Solubility (mg/g) (3 weeks) ([5]; Water, slurry, solid Form I): 0 mg/g
Solubility (mg/g) (3 weeks) ([5]; iPrOAc/n-heptane (1:3) v/v, slurry, solid Form I): 18.9 mg/g
Solubility in organic solvents (in words) ([5]; many organic solvents): highly soluble
Solubility (mg/g) (3 weeks) ([5]; n-Heptane, slurry, solid Form I): 0.9 mg/g
Solubility (mg/g) (3 weeks) ([5]; t-amyl alcohol/n-heptane (1:3) v/v, slurry, solid Form I): 17.5 mg/g
Solubility ([6]; 10% EtOH in water (volume), water activity >0.9, solid found Form I): 0 mg/g
Solubility ([6]; 10% IPA in water (volume), water activity >0.9, solid found Form III): 0 mg/g
Solubility ([6]; 20% EtOH in water (volume), water activity 0.8-0.9, solid found Form III): 0.05 mg/g
Solubility ([6]; 20% IPA in water (volume), water activity >0.9, solid found Form I): 0 mg/g
Solubility ([6]; 25% IPA in water (volume), water activity >0.9, solid found Form III): 0.5 mg/g
Solubility ([6]; 30% EtOH in water (volume), water activity 0.8-0.9, solid found Form I): 0.6 mg/g
pKa (pKa): < 2
Late sodium current inhibition (in words) [7]: selective late sodium current inhibitor

O=C1c2cc(-c3ccc(OC(F)(F)F)cc3)ccc2OCCN1Cc1ncccn1 [Compound I Form I, 4-(pyrimidin-2-ylmethyl)-7-(4-(trifluoromethoxy)phenyl)-3,4-dihydrobenzo[f][1,4]oxazepin-5(2H)-one]
Form I Solubility mg/g (2 weeks) ([6]; 10% EtOH/water, water activity >0.9): 0.09 mg/g
Form I Solubility mg/g (2 weeks) ([6]; 10% IPA/water, water activity >0.9): 0.10 mg/g
Form I Solubility mg/g (2 weeks) ([6]; 20% EtOH/water, water activity 0.8-0.9): 0.10 mg/g
Form I Solubility mg/g (2 weeks) ([6]; 20% IPA/water, water activity >0.9): 0.18 mg/g
Form I Solubility mg/g (2 weeks) ([6]; 25% IPA/water, water activity >0.9): 0.65 mg/g
Form I Solubility mg/g (2 weeks) ([6]; 30% EtOH/water, water activity 0.8-0.9): 0.49 mg/g
Form I Solubility mg/g (2 weeks) ([6]; 30% IPA/water, water activity >0.9): 4.7 mg/g
Form I Solubility mg/g (2 weeks) ([6]; 35% EtOH/water, water activity 0.8-0.9): 1.3 mg/g
3 days TGA ([8]; Aw 0.6, 3 days): 14 mg/mL
3 days TGA ([8]; Aw 0.7, 3 days): 4.5 mg/mL
14 days TGA ([8]; Aw 0.7, 14 days): 2 mg/mL
3 days TGA ([8]; Aw 0.8, 3 days): 1.4 mg/mL
14 days TGA ([8]; Aw 0.8, 14 days): 1 mg/mL
3 days TGA ([8]; Aw 0.9, 3 days): 0.5 mg/mL
14 days TGA ([8]; Aw 0.9, 14 days): <1 mg/mL
Solubility (in words) ([8]; Aw below 0.6, only solutions present): extraordinarily high
Relative stability of Forms I and II (in words) ([2]; listed as Form I): the more stable form at below 35 °C

O=C1c2cc(-c3ccc(OC(F)(F)F)cc3)ccc2OCCN1Cc1ncccn1.O=S(=O)(O)O [Compound I Form XIV, 4-(pyrimidin-2-ylmethyl)-7-(4-(trifluoromethoxy)phenyl)-3,4-dihydrobenzo[f][1,4]oxazepin-5(2H)-one mono sulfate]
Relative humidity of deliquescence (DVS) ([3]; listed as Compound I FORM XIV): around 70 % RH
Relative humidity of deliquescence (DVS) [3]: about 70 % RH
Relative stability of Forms XIV and XV (in words) [9]: the more stable phase in comparison with Compound I FORM XV
